Reference: patent publication US8637470B2, “Small humanin-like peptides” (The Regents of the University of California, priority 2008, dated 2014)
“Also recorded” adds a separate entry of the source.

Legend:
[1] = system: 22RV1 human prostate cancer cells; assay: Apoptosis ELISA (fragmentation of histone-associated DNA) in 22RV1 cells; assay type: cell-based; conditions: for Protective effect of SHLP on apoptosis after stattic pre-treatment: 22RV1, 20 μM stattic (STAT3 inhibitor), 100 nM peptide; for Effect of SHLP on apoptosis after PD98059 pre-treatment: 22RV1, 25 μM PD98059 (ERK1/2 inhibitor); for Apoptosis (fragmentation of histone-associated DNA): 22RV1, serum starved 24 h, then 24 h with 100 μM peptide
Procedure: (§1) SHLPs are anti-apoptotic in 22RV1 prostate cancer cells and NIT-1 β-cells. […] Mouse NIT-1 insulinoma β-cells and 22RV1 human prostate cancer cells were serum starved for 24 h, followed by 24 h incubation with 100 nM scrambled control peptide, HN or SHLPs. Apoptosis was assessed and quantified by ELISA for fragmentation of histone-associated DNA.
(§2) ERK activation is necessary for SHLP-induced inhibition of apoptosis in NIT-1 and 22RV1 cells. To determine the significance of ERK activation for apoptosis inhibition by SHLPs 2 and 3, PD98059 (PD), a specific chemical inhibitor of ERK1/2, was utilized. 22RV1 and NIT-1 cells were serum starved for 24 h in the presence or absence of 25 μM PD or 1 μM wortmannin (PI3-kinase inhibitor; negative control), followed by 24 h incubation with […] scrambled control peptide, SHLP2 or SHLP3. Apoptosis was then assessed by ELISA for fragmentation of histone-associated DNA.
STAT3 Activation is also necessary for SHLP-induced cell survival in 22RV1 cells. Since SHLPs 2 and 3 both stimulate STAT3 phosphorylation in addition to ERK activation, the hypothesis that STAT3 activation occurs downstream of ERK1/2 was tested using a specific chemical inhibitor against STAT3, stattic. 22RV1 cells were incubated for 24 h in SF media in the presence or absence of 20 μM stattic followed by 24 h incubation with 100 nM scrambled control peptide, SHLP2 or SHLP3. Apoptosis was assessed by ELISA for fragmentation of histone-associated DNA. […]

[2] = system: Mouse NIT-1 insulinoma β-cells; assay: Apoptosis ELISA (fragmentation of histone-associated DNA) in NIT-1 cells; assay type: cell-based; conditions: for Effect on apoptosis in the presence of IGFBP-3: NIT-1, 1 μg/ml IGFBP-3 plus SHLP; for Effect of SHLP on apoptosis after PD98059 pre-treatment: NIT-1, 25 μM PD98059 (ERK1/2 inhibitor)
Procedure: as §1, §2
Role of IGFBP-3 in effects of SHLPs on cell survival. Since IGFBP-3 is an important regulator of HN action, IGFBP-3 was tested for a possible role in regulating the anti- or pro-apoptotic actions of SHLPs. NIT-1 cells were incubated with 1 μg/ml IGFBP-3±0, 10, 100 or 1000 nM SHLP2 or 3 for 24 h. Apoptosis induction was assessed by ELISA for fragmentation of histone-associated DNA.
Co-incubation of SHLPs. To evaluate therapeutic uses involving co-treatment with SHLPs, the effect of HN±SHLPs on apoptosis was tested in both 22RV1 and NIT-1 cells. Cells were incubated in SF media for 24 h followed by 24 h with 100 nM HN, SHLP or peptide combination. Apoptosis was assessed by ELISA for fragmentation of histone-associated DNA. Cells were treated with all possible double peptide combinations. Although many peptide combinations had no additive or combined effects compared with the actions of the peptides individually, co-treatment with certain combinations led to unexpected functional changes (FIG. 11). […] Thus, specific SHLPs may either act on complementary pathways, or interact with each other, leading to change of function of one or both peptides. When the same experiments were repeated in NIT-1 cells, similar, but different, change of function effects were observed (FIG. 11B).

[3] = system: STAT3; assay: STAT3 activation in 22RV1 cells (immunoblotting); assay type: cell-based, human; conditions: 22RV1, 100 nM
Procedure: Since HN causes activation of STAT3, SHLPs 2 and 3 were also tested for effects on STAT3. […] To more accurately quantify the ERK phosphorylation caused by SHLPs 2 and 3, we repeated the experiment as described above but used a commercially available ERK ELISA to assess ERK phosphorylation. Optimal ERK activation by SHLP2 was 9-fold after 24 h, whilst optimal activation by SHLP3 was 12-fold after 2 h (FIG. 5).

[4] = molecular target: biotinylated-HN (Homo sapiens, UniProt Q8IVG9); assay: Dot-blot binding to biotinylated-HN; conditions: 2, 5 or 10 nmol peptide dotted on nitrocellulose
Sequence of biotinylated-HN (Q8IVG9 whole entry): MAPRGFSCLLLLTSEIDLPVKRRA
Procedure: To test a dimerization hypothesis, we performed a dot-blot using biotinylated-HN. Two, 5 or 10 nmol IGF-I (negative control), HN (positive control) or SHLP peptide were dotted on to nitrocellulose membrane, and their ability to bind to biotinylated-HN was assessed immunologically. […] Specific interactions that occur may be determined using, e.g., dot blots with biotinylated SHLPs, and/or antibodies against specific SHLPs.

[5] = system: HAEC'S; assay: Intracellular ROS production (DHE fluorescence) in HAEC; assay type: cell-based; conditions: 0.1 nM peptide over night, oxidized LDL 100 μg protein/ml 30 min
Procedure: SHLPs suppress intracellular production of Reactive Oxygen Species (ROS). ROS production was monitored by following the conversion of the oxidant-sensitive dye dihydroethidine to the fluorescent ethidium (DHE) for measuring the cellular ability to produce Reactive Oxygen Species. HAEC'S plated on glass cover slips were incubated over night with 0.1 nM SHLP2 or SHLP6 versus regular cultured medium. For ROS measurement, cells were incubated for 30 min with 10 μM DHE in HBSS containing calcium magnesium and glucose at 37° c. Then cells were treated with Oxidized LDL 100 μg protein/ml for 30 minutes at 37° c. Samples were imaged under fluorescence microscope with a Texas Red filter corresponding to the fluorescence of DHE. Average fluorescence intensity was used to evaluate the changes of intracellular ROS generation, results are expressed in relative fluorescence unit (RFU) representing average intensity per cell area.

[6] = NIT-1, 0, 10, 100 or 1000 nM SHLP, 24 h

## MGVKFFTLSTRFFPSVQRAVPLWTNS [SHLP2, small humanin-like peptide, mtDNA 2092-2170]
[1]; 22RV1, 1 μM wortmannin (PI3-kinase inhibitor)
  SHLP-induced cell survival after wortmannin pre-treatment: inhibited SHLP2-induced cell survival
[1]
  Protective effect of SHLP on apoptosis after stattic pre-treatment: abrogated the protective effects
  Effect of SHLP on apoptosis after PD98059 pre-treatment: abrogated
  Apoptosis (fragmentation of histone-associated DNA): significantly inhibited
[2]; [6]
  Apoptosis (fragmentation of histone-associated DNA): dose dependent inhibition of apoptosis
[2]; NIT-1, 1 μM wortmannin (PI3-kinase inhibitor)
  SHLP-induced cell survival after wortmannin pre-treatment: not in NIT-1 cells
[2]; 24 h
  Effect on apoptosis in the presence of IGFBP-3: unaffected by the presence of IGFBP-3
[2]
  Effect of SHLP on apoptosis after PD98059 pre-treatment: abrogated
[2]; NIT-1, serum starved 24 h, then 24 h with 100 nM peptide
  Apoptosis (fragmentation of histone-associated DNA): significantly inhibited
[3]
  STAT3 activation (immunoblotting): significantly enhanced STAT3 activation
[4]
  Binding to biotinylated-HN (dot-blot): weak interaction; also recorded: binds
[5]
  Intracellular ROS production (DHE fluorescence): suppresses ROS production; also recorded: suppresses production of reactive oxygen species

## MLGYNFSSFPCGTISIAPGFNFYRLYFIWVNGLAKVVW [SHLP3, small humanin-like peptide, mtDNA 1707-1821]
[1]
  Protective effect of SHLP on apoptosis after stattic pre-treatment: abrogated the protective effects
  Effect of SHLP on apoptosis after PD98059 pre-treatment: abrogated
  Apoptosis (fragmentation of histone-associated DNA): significantly inhibited
[2]; [6]
  Apoptosis (fragmentation of histone-associated DNA): reduced levels of apoptosis
[2]; 24 h
  Effect on apoptosis in the presence of IGFBP-3: inhibit IGFBP-3-induced apoptosis
[2]
  Effect of SHLP on apoptosis after PD98059 pre-treatment: abrogated
[3]
  STAT3 activation (immunoblotting): significantly enhanced STAT3 activation
